What was measured:
Glucocorticoid receptor [1] = molecular target: T1, Glucocorticoid receptor (Homo sapiens, UniProt P04150)
T1 sequence (P04150 whole entry): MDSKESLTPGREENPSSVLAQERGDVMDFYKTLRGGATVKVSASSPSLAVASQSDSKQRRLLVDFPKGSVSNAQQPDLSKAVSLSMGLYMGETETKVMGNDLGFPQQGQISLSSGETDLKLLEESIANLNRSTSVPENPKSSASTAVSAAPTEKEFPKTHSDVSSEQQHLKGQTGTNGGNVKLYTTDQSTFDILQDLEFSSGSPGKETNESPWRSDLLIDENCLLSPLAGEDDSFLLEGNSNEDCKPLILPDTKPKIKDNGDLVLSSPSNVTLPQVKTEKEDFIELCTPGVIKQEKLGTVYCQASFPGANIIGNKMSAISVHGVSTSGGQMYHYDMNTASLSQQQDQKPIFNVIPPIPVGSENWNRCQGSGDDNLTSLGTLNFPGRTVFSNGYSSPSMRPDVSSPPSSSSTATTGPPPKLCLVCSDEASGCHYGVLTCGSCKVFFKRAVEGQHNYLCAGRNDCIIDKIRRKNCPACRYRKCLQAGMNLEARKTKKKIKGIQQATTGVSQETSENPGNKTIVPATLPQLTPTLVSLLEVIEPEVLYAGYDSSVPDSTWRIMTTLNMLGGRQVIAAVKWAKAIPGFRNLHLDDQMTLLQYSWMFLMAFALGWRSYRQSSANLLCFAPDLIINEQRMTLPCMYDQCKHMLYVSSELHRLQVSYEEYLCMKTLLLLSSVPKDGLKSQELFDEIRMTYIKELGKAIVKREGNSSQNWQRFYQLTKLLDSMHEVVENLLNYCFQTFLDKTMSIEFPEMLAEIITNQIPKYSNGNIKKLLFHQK
Description: Agonist activity at glucocorticoid receptor in human foreskin fibroblasts assessed as inhibition of IL-1-induced IL-6 production by trans-repression assay

Progesterone receptor = molecular target: T2, Progesterone receptor (Homo sapiens, UniProt P06401); test: Displacement of TAMRA-labeled mifepristone from progesterone receptor (unknown origin) by fluorescence polarization assay
T2 sequence (P06401 whole entry): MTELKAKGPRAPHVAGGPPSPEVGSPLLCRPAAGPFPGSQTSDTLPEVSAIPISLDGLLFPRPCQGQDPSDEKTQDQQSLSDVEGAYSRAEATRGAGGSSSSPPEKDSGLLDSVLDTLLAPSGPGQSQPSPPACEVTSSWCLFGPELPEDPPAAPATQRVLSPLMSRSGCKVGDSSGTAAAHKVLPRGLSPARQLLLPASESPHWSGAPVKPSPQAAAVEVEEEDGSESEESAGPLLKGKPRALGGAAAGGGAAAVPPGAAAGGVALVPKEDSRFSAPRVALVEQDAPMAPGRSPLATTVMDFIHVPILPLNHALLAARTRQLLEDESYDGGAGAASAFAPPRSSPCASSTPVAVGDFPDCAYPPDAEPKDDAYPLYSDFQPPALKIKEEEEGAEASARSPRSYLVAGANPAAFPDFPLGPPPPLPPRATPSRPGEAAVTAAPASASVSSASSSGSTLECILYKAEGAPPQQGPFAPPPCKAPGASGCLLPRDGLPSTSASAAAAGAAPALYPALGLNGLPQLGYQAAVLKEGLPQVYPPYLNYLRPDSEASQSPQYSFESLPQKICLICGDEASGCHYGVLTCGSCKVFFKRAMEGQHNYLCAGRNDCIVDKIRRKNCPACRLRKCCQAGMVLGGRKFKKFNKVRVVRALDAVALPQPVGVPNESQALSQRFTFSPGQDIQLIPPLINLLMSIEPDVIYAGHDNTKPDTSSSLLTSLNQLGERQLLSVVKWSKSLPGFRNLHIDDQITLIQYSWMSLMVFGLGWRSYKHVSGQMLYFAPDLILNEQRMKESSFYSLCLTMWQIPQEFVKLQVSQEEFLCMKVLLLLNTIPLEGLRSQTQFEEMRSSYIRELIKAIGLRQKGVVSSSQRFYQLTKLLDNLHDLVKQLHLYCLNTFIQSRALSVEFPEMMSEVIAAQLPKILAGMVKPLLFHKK

[2] = molecular target: T3, Mineralocorticoid receptor (Homo sapiens, UniProt P08235); test: Displacement of TAMRA-labeled dexamethasone from mineralocorticoid receptor (unknown origin) by fluorescence polarization assay
T3 sequence (P08235 whole entry): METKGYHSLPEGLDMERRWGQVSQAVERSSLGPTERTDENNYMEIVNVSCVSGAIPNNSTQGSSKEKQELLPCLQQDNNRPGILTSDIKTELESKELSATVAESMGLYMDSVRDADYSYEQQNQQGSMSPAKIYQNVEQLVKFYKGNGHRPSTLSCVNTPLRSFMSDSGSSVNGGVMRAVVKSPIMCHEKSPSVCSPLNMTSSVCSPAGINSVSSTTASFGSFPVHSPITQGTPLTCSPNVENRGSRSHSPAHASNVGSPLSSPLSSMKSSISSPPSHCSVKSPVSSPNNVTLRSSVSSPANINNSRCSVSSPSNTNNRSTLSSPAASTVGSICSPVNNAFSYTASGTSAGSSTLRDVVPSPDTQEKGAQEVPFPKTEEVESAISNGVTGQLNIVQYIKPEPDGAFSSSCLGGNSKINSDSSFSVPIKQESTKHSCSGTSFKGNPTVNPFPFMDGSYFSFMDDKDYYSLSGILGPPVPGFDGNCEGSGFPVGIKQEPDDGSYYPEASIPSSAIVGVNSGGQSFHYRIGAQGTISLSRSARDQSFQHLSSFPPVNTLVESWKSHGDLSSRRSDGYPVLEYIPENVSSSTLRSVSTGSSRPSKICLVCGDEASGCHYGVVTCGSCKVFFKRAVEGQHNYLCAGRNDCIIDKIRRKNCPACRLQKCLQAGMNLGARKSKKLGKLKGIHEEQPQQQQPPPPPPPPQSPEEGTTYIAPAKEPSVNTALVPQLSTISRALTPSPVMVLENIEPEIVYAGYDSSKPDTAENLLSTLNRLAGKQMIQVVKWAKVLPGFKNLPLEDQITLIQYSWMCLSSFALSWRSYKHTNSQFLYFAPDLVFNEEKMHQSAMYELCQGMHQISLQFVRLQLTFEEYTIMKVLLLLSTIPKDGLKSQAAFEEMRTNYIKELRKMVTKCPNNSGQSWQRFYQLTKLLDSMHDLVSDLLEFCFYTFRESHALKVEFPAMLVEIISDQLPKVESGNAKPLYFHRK

Glucocorticoid receptor [3] = molecular target: T1, Glucocorticoid receptor; remark: listed apart in the source
Glucocorticoid receptor [4] = molecular target: T1, Glucocorticoid receptor; test: Transactivation of glucocorticoid receptor in human HeLa cells harboring MMTV promoter at 2 uM by luciferase reporter gene assay relative to dexamethasone; type: cell-based; conditions: read-out: Efficacy
Glucocorticoid receptor [5] = molecular target: T1, Glucocorticoid receptor; remark: listed apart in the source
Description: Transactivation of glucocorticoid receptor in human HeLa cells harboring MMTV promoter by luciferase reporter gene assay

Homo sapiens [6] = species: Homo sapiens; test: Selectivity ratio of IC50 for progesterone receptor (unknown origin) to IC50 for glucocorticoid receptor (unknown origin)
Homo sapiens [7] = species: Homo sapiens; test: Selectivity ratio of IC50 for mineralocorticoid receptor (unknown origin) to IC50 for glucocorticoid receptor (unknown origin)
[8] = Chemical stability of the compound in aqueous solution at pH 2; type: physicochemical; conditions: buffer
[9] = Chemical stability of the compound in aqueous solution at pH 2 to 7.4 after 24 hrs; type: physicochemical; conditions: buffer, pH 2, 24 h
Mus musculus [10] = test: Toxicity in B10.RIII mouse assessed as insulin level in serum at 3 mg/kg, po qd for 5 weeks relative to control; type: organism-based; design: dose 3 mg/kg, route oral; conditions: in vivo, 840 h
Mus musculus [11] = test: Toxicity in B10.RIII mouse assessed as triglyceride level in serum at 3 mg/kg, po qd for 5 weeks relative to control; type: organism-based; design: dose 3 mg/kg, route oral; conditions: in vivo, 840 h
Mus musculus [12] = test: Toxicity in B10.RIII mouse assessed as free fatty acid level in serum at 30 mg/kg, po qd for 5 weeks relative to control; type: organism-based; design: dose 30 mg/kg, route oral; conditions: in vivo, 840 h
Mus musculus [13] = test: Antiinflammatory activity in mouse assessed as inhibition of LPS-induced TNFalpha production at 3 mg/kg, po; type: functional
Mus musculus [14] = test: Toxicity in B10.RIII mouse assessed as insulin level in serum at 30 mg/kg, po qd for 5 weeks relative to control; type: organism-based; design: dose 30 mg/kg, route oral; conditions: in vivo, 840 h
Mus musculus [15] = test: Antiarthritic activity in B10.RIII mouse collagen/complete Freund's adjuvant-induced arthritis model assessed as reduction of disease score at 3 mg/kg, po qd for 5 weeks relative to control; type: functional; design: scale not given: the % may be the effect or the level left
Mus musculus [16] = test: Antiarthritic activity in B10.RIII mouse collagen/complete Freund's adjuvant-induced arthritis model assessed as reduction of disease score at 30 mg/kg, po qd for 5 weeks relative to control; type: functional; design: scale not given: the % may be the effect or the level left
Mus musculus [17] = test: Toxicity in B10.RIII mouse assessed as body fate level in serum at 3 mg/kg, po qd for 5 weeks relative to control; type: organism-based; design: dose 3 mg/kg, route oral; conditions: in vivo, 840 h
Mus musculus [18] = test: Toxicity in B10.RIII mouse assessed as free fatty acid level in serum at 3 mg/kg, po qd for 5 weeks relative to control; type: organism-based; design: dose 3 mg/kg, route oral; conditions: in vivo, 840 h
Mus musculus [19] = test: Toxicity in B10.RIII mouse assessed as body fate level in serum at 30 mg/kg, po qd for 5 weeks relative to control; type: organism-based; design: dose 30 mg/kg, route oral; conditions: in vivo, 840 h
Mus musculus [20] = test: Toxicity in B10.RIII mouse assessed as triglyceride level in serum at 30 mg/kg, po qd for 5 weeks relative to control; type: organism-based; design: dose 30 mg/kg, route oral; conditions: in vivo, 840 h

IC50 (Glucocorticoid receptor [1]) | IC50 (Progesterone receptor) | IC50 [2] | IC50 (Glucocorticoid receptor [3]) | SMILES | further results
9 nM | 790 nM | 640 nM | 4 nM | COc1ccc(F)cc1C(C)(C)CC(O)(Cc1cc2cnccc2[nH]1)C(C)(C)C (centres undefined) | Emax at 2 µM (Glucocorticoid receptor [4]): 10%; EC50 (Glucocorticoid receptor [5]): > 2000 nM
36 nM | 1800 nM | 1800 nM | 8 nM | COc1ccc(F)cc1C(C)(C)CC(O)(Cc1cc2ccncc2[nH]1)C(C)(C)C (centres undefined) | Ratio IC50 (Homo sapiens [6]): > 100; Ratio IC50 (Homo sapiens [7]): > 100
260 nM | > 2000 nM | > 2000 nM | 17 nM | COc1ccc(F)cc1C(C)(C)CC(O)(Cc1cc2ccncc2[nH]1)C1CCC1 (centres undefined) | –
73 nM | > 2000 nM | 1000 nM | 9 nM | COc1ccc(F)cc1C(C)(C)CC(O)(Cc1cc2ccncc2[nH]1)C(C)C (centres undefined) | Ratio IC50 (Homo sapiens [6]): > 100; Ratio IC50 (Homo sapiens [7]): > 100
– | > 2000 nM | 1300 nM | 1300 nM | Cc1ccc(F)cc1C(C)(C)C[C@](O)(Cc1cc2cnccc2[nH]1)C(C)(C)C | –
24 nM | > 2000 nM | 1550 nM | 9 nM | Cc1ccc(F)cc1C(C)(C)CC(O)(Cc1cc2cnccc2[nH]1)C1CC1 (centres undefined) | Stability [8]: Unstable; Emax at 2 µM (Glucocorticoid receptor [4]): 11%; EC50 (Glucocorticoid receptor [5]): > 2000 nM
> 2000 nM | > 2000 nM | 1100 nM | 26 nM | COc1ccc(F)cc1C(C)(C)CC(O)(Cc1cc2ccncc2[nH]1)C1CCCC1 (single isomer, unassigned) | –
> 2000 nM | > 2000 nM | > 2000 nM | 230 nM | COc1ccc(F)cc1C(C)(C)CC(C)(O)Cc1cc2ccncc2[nH]1 (centres undefined) | –
8 nM | > 2000 nM | 1800 nM | 6 nM | COc1ccc(F)cc1C(C)(C)CC(O)(Cc1cc2cnccc2[nH]1)C1CC1 (centres undefined) | Emax at 2 µM (Glucocorticoid receptor [4]): 20%; EC50 (Glucocorticoid receptor [5]): 90 nM
10 nM | > 2000 nM | – | 4 nM | COc1ccc(F)cc1C(C)(C)CC(O)(Cc1cc2ccncc2[nH]1)C(F)(F)F (centres undefined) | –
> 2000 nM | > 2000 nM | 1900 nM | 13 nM | CCC(C)(C)C(O)(Cc1cc2ccncc2[nH]1)CC(C)(C)c1cc(F)ccc1OC (centres undefined) | Ratio IC50 (Homo sapiens [6]): > 100; Ratio IC50 (Homo sapiens [7]): > 100
35 nM | 780 nM | 720 nM | 5 nM | Cc1ccc(F)cc1C(C)(C)CC(O)(Cc1cc2cnccc2[nH]1)C(C)(C)C (racemic) | Stability [8]: Stable; Emax at 2 µM (Glucocorticoid receptor [4]): 1%; EC50 (Glucocorticoid receptor [5]): > 2000 nM; Stability [9]: Stable
220 nM | > 2000 nM | > 2000 nM | 51 nM | CCC(O)(Cc1cc2ccncc2[nH]1)CC(C)(C)c1cc(F)ccc1OC (centres undefined) | –
– | – | – | – | C[C@]12C=CC(=O)C=C1CC[C@@H]1[C@@H]2[C@@H](O)C[C@@]2(C)[C@H]1CC[C@]2(O)C(=O)CO [PREDNISOLONE] | Activity (Mus musculus [10]): 37%; Activity (Mus musculus [11]): -11%; Activity (Mus musculus [12]): 27%; inhibition in vivo at 3 mg/kg (Mus musculus [13]): 87%; Activity (Mus musculus [14]): 187%; Activity (Mus musculus [15]): -42%; Activity (Mus musculus [16]): -80%; Activity (Mus musculus [17]): 13%; Activity (Mus musculus [18]): 16%; Activity (Mus musculus [19]): 53%; Activity (Mus musculus [20]): 55%
47 nM | > 2000 nM | > 2000 nM | 15 nM | COc1ccc(F)cc1C(C)(C)CC(O)(Cc1cc2ccncc2[nH]1)C1CC1 (centres undefined) | Ratio IC50 (Homo sapiens [6]): > 100; Ratio IC50 (Homo sapiens [7]): > 100

From ChEMBL document CHEMBL3232739, “Discovery of a potent and dissociated non-steroidal glucocorticoid receptor agonist containing an alkyl carbinol pharmacophore” (Bioorg Med Chem Lett, 2014)
